# Like-named read-outs stand apart in the source and are kept apart here.
# What was measured:
# Assay in all cases: In vitro antibacterial activity, agar plate dilution method (MIC)
# S.marcescens No. 16-2 = type: cell-based; settings: Serratia marcescens, NO.162; S.marcescens No. 16-2 (β-Lactamase-producing strain); Mueller Hinton agar, inoculum 10⁶ CFU/ml, 37°C, 16 hours; read-out: Minimum Inhibitory Concentration (MIC: µg/ml)
# Method: (§1) The in vitro antibacterial activities of the compounds of the present invention against various microorganisms, were measured by the following agar plate dilution method. One platinum loopfull of each test microorganism incubated overnight in Mueller Hinton broth, was inoculated to Mueller Hinton agar (inoculum size: l0⁶ CFU/ml). Such culture media containing various antibiotics in various concentrations were prepared. After incubation at 37°C for l6 hours, the minimum inhibitory concentrations (MIC: µg/ml) were measured. As comparative compounds, Cefotaxime, Ceftazidime and the compounds of Reference Examples l to 4 were employed.
# Ps.aeruginosa IFO3445 = type: cell-based; settings: Pseudomonas aeruginosa; Ps.aeruginosa IFO3445; Mueller Hinton agar, inoculum 10⁶ CFU/ml, 37°C, 16 hours; read-out: Minimum Inhibitory Concentration (MIC: µg/ml)
# Method: as §1
# K.pneumoniae PCI-602 = type: cell-based; settings: Klebsiella pneumoniae, PCI602; K.pneumoniae PCI-602; Mueller Hinton agar, inoculum 10⁶ CFU/ml, 37°C, 16 hours; read-out: Minimum Inhibitory Concentration (MIC: µg/ml)
# Method: as §1
# P.vulgaris HX-19 = type: cell-based; settings: Proteus vulgaris, HX19; P.vulgaris HX-19; Mueller Hinton agar, inoculum 10⁶ CFU/ml, 37°C, 16 hours; read-out: Minimum Inhibitory Concentration (MIC: µg/ml)
# Method: as §1
# S.aureus 209P NIHJ-JC1 = type: cell-based; settings: Staphylococcus aureus; S.aureus 209P NIHJ-JC1; Mueller Hinton agar, inoculum 10⁶ CFU/ml, 37°C, 16 hours; read-out: Minimum Inhibitory Concentration (MIC: µg/ml)
# Method: as §1
# K.pneumoniae No. 42 = type: cell-based; settings: Klebsiella pneumoniae; K.pneumoniae No. 42 (β-Lactamase-producing strain); Mueller Hinton agar, inoculum 10⁶ CFU/ml, 37°C, 16 hours; read-out: Minimum Inhibitory Concentration (MIC: µg/ml)
# Method: as §1
# E.coli NIHJ JC2 = type: cell-based; settings: Escherichia coli, NIHJJC2; E.coli NIHJ JC2; Mueller Hinton agar, inoculum 10⁶ CFU/ml, 37°C, 16 hours; read-out: Minimum Inhibitory Concentration (MIC: µg/ml)
# Method: as §1
# M.luteus ATCC9341 = type: cell-based; settings: Micrococcus luteus; M.luteus ATCC9341; Mueller Hinton agar, inoculum 10⁶ CFU/ml, 37°C, 16 hours; read-out: Minimum Inhibitory Concentration (MIC: µg/ml)
# Method: as §1
# S.marcescens IAM 1184 = type: cell-based; settings: Serratia marcescens, read-out: Minimum Inhibitory Concentration (MIC: µg/ml)
# Method: as §1
# E.coli CSH2 (RK1) = type: cell-based; settings: Escherichia coli, 16 h, read-out: Minimum Inhibitory Concentration (MIC: µg/ml)
# Method: as §1
# S.epidermidis IAM12012 = type: cell-based; settings: Staphylococcus epidermidis; S.epidermidis IAM12012; Mueller Hinton agar, inoculum 10⁶ CFU/ml, 37°C, 16 hours; read-out: Minimum Inhibitory Concentration (MIC: µg/ml)
# Method: as §1
# E.cloacae Nek 39 = type: cell-based; settings: Enterobacter cloacae, NEK39; E.cloacae Nek 39 (β-Lactamase-producing strain); Mueller Hinton agar, inoculum 10⁶ CFU/ml, 37°C, 16 hours; read-out: Minimum Inhibitory Concentration (MIC: µg/ml)
# Method: as §1
# S.aureus JS1 = type: cell-based; settings: Staphylococcus aureus; S.aureus JS1 (β-Lactamase-producing strain); Mueller Hinton agar, inoculum 10⁶ CFU/ml, 37°C, 16 hours; read-out: Minimum Inhibitory Concentration (MIC: µg/ml)
# Method: as §1
# Ps.aeruginosa AK 109 = type: cell-based; settings: Pseudomonas aeruginosa, AK109; Ps.aeruginosa AK 109; Mueller Hinton agar, inoculum 10⁶ CFU/ml, 37°C, 16 hours; read-out: Minimum Inhibitory Concentration (MIC: µg/ml)
# Method: as §1
# K.oxytoca GN10650 = type: cell-based; settings: Klebsiella oxytoca; K.oxytoca GN10650 (β-Lactamase-producing strain); Mueller Hinton agar, inoculum 10⁶ CFU/ml, 37°C, 16 hours; read-out: Minimum Inhibitory Concentration (MIC: µg/ml)
# Method: as §1
# A.calcoaceticus No. 4 = type: cell-based; settings: Acinetobacter calcoaceticus; A.calcoaceticus No. 4; Mueller Hinton agar, inoculum 10⁶ CFU/ml, 37°C, 16 hours; read-out: Minimum Inhibitory Concentration (MIC: µg/ml)
# Method: as §1
# E.coli GN5482 = type: cell-based; settings: Escherichia coli; E.coli GN5482 (β-Lactamase-producing strain); Mueller Hinton agar, inoculum 10⁶ CFU/ml, 37°C, 16 hours; read-out: Minimum Inhibitory Concentration (MIC: µg/ml)
# Method: as §1
# S.aureus BB5703 = type: cell-based; settings: Staphylococcus aureus; S.aureus BB5703; Mueller Hinton agar, inoculum 10⁶ CFU/ml, 37°C, 16 hours; read-out: Minimum Inhibitory Concentration (MIC: µg/ml)
# Method: as §1
# M.morganii GN5407 = type: cell-based; settings: Morganella morganii; M.morganii GN5407 (β-Lactamase-producing strain); Mueller Hinton agar, inoculum 10⁶ CFU/ml, 37°C, 16 hours; read-out: Minimum Inhibitory Concentration (MIC: µg/ml)
# Method: as §1
# C.freundii GN346/16 = type: cell-based; settings: Citrobacter freundii; C.freundii GN346/16; Mueller Hinton agar, inoculum 10⁶ CFU/ml, 37°C, 16 hours; read-out: Minimum Inhibitory Concentration (MIC: µg/ml)
# Method: as §1
# E.cloacae 963 = type: cell-based; settings: Enterobacter cloacae; E.cloacae 963; Mueller Hinton agar, inoculum 10⁶ CFU/ml, 37°C, 16 hours; read-out: Minimum Inhibitory Concentration (MIC: µg/ml)
# Method: as §1
# P.vulgaris No. 33 = type: cell-based; settings: Proteus vulgaris; P.vulgaris No. 33 (β-Lactamase-producing strain); Mueller Hinton agar, inoculum 10⁶ CFU/ml, 37°C, 16 hours; read-out: Minimum Inhibitory Concentration (MIC: µg/ml)
# Method: as §1
# E.coli CSH(RE45) = type: cell-based; settings: Escherichia coli, 16 h, read-out: Minimum Inhibitory Concentration (MIC: µg/ml)
# Method: as §1
# C.freundii GN346 = type: cell-based; settings: Citrobacter freundii; C.freundii GN346 (β-Lactamase-producing strain); Mueller Hinton agar, inoculum 10⁶ CFU/ml, 37°C, 16 hours; read-out: Minimum Inhibitory Concentration (MIC: µg/ml)
# Method: as §1
# Ps.aeruginosa AKR17 = type: cell-based; settings: Pseudomonas aeruginosa; Ps.aeruginosa AKR17; Mueller Hinton agar, inoculum 10⁶ CFU/ml, 37°C, 16 hours; read-out: Minimum Inhibitory Concentration (MIC: µg/ml)
# Method: as §1
# Ps.maltophilia GN 12873 = type: cell-based, Pseudomonas maltophilia; settings: Stenotrophomonas maltophilia, GN12873; Ps.maltophilia GN 12873 (β-Lactamase-producing strain); Mueller Hinton agar, inoculum 10⁶ CFU/ml, 37°C, 16 hours; read-out: Minimum Inhibitory Concentration (MIC: µg/ml)
# Method: as §1
# Ps.cepacia 23 = type: cell-based, Pseudomonas cepacia; settings: Burkholderia cepacia; Ps.cepacia 23; Mueller Hinton agar, inoculum 10⁶ CFU/ml, 37°C, 16 hours; read-out: Minimum Inhibitory Concentration (MIC: µg/ml)
# Method: as §1
# [1] = IAM1184, S.marcescens IAM 1184, Mueller Hinton agar, inoculum 10⁶ CFU/ml, 37°C, 16 hours
Structure (SMILES),MIC (S.marcescens No. 16-2),MIC (Ps.aeruginosa IFO3445),MIC (K.pneumoniae PCI-602),MIC (P.vulgaris HX-19),MIC (S.aureus 209P NIHJ-JC1),MIC (K.pneumoniae No. 42),MIC (E.coli NIHJ JC2),MIC (E.coli CSH2 (RK1)),MIC (E.cloacae Nek 39),MIC (S.aureus JS1),MIC (Ps.aeruginosa AK 109),MIC (K.oxytoca GN10650),MIC (A.calcoaceticus No. 4),MIC (E.coli GN5482),MIC (S.aureus BB5703),MIC (M.morganii GN5407),MIC (C.freundii GN346/16),MIC (E.cloacae 963),MIC (P.vulgaris No. 33),MIC (E.coli CSH(RE45)),further results
"C=CCON=C(C(=O)NC1C(=O)N2C(C(=O)[O-])=C(C[n+]3ccc4cc(O)c(O)cc4c3)CS[C@H]12)c1csc(N)n1 (stereo partly drawn) [Ex. 3, 7-[2-allyloxyimino-2-(2-aminothiazol-4-yl)acetamido]-3-(6,7-dihydroxy-2-isoquinolinio)methyl-3-cephem-4-carboxylate]",1.56 µg/mL,0.39 µg/mL,< 0.006 µg/mL,< 0.006 µg/mL,0.78 µg/mL,0.1 µg/mL,0.1 µg/mL,0.0125 µg/mL,0.1 µg/mL,12.5 µg/mL,0.78 µg/mL,3.12 µg/mL,0.2 µg/mL,0.39 µg/mL,6.25 µg/mL,0.05 µg/mL,0.39 µg/mL,0.05 µg/mL,0.1 µg/mL,0.025 µg/mL,"MIC (M.luteus ATCC9341): 0.2 µg/mL; MIC (S.marcescens IAM 1184; IAM1184, 16 h): 0.0125 µg/mL; MIC (S.epidermidis IAM12012): 0.39 µg/mL; MIC (C.freundii GN346): 50 µg/mL; MIC (Ps.aeruginosa AKR17): 100 µg/mL; MIC (Ps.maltophilia GN 12873): > 100 µg/mL; MIC (Ps.cepacia 23): < 0.006 µg/mL"
"CON=C(C(=O)NC1C(=O)N2C(C(=O)[O-])=C(C[n+]3ccc4cccc(O)c4c3)CS[C@H]12)c1csc(N)n1 (stereo partly drawn) [Reference Ex. 3, 7-[2-(2-aminothiazol-4-yl)-2-methoxyiminoacetamido]-3-(8-hydroxy-2-isoquinolinio)methyl-3-cephem-4-carboxylate, reference compound]",3.12 µg/mL,12.5 µg/mL,< 0.006 µg/mL,0.0125 µg/mL,0.78 µg/mL,0.1 µg/mL,0.05 µg/mL,0.025 µg/mL,0.78 µg/mL,25 µg/mL,50 µg/mL,3.12 µg/mL,25 µg/mL,0.39 µg/mL,3.12 µg/mL,0.025 µg/mL,0.1 µg/mL,0.05 µg/mL,0.05 µg/mL,0.39 µg/mL,MIC (S.marcescens IAM 1184; [1]): 0.025 µg/mL; MIC (C.freundii GN346): 12.5 µg/mL; MIC (Ps.aeruginosa AKR17): > 100 µg/mL; MIC (Ps.maltophilia GN 12873): > 100 µg/mL; MIC (Ps.cepacia 23): 6.25 µg/mL
"CC(C)(ON=C(C(=O)NC1C(=O)N2C(C(=O)[O-])=C(C[n+]3ccc4c(O)cccc4c3)CSC12)c1csc(N)n1)C(=O)O (stereo not drawn) [Reference Ex. 4, sodium 7-[2-(2-aminothiazol-4-yl)-2-(l-carboxylato-l-methylethoxyimino)acetamido]-3-(5-hydroxy-2-isoquinolinio)methyl-3-cephem-4-carboxylate, reference compound]",6.25 µg/mL,6.25 µg/mL,0.2 µg/mL,0.0125 µg/mL,12.5 µg/mL,0.78 µg/mL,0.78 µg/mL,0.39 µg/mL,12.5 µg/mL,100 µg/mL,6.25 µg/mL,0.39 µg/mL,25 µg/mL,6.25 µg/mL,100 µg/mL,0.1 µg/mL,1.56 µg/mL,0.78 µg/mL,0.1 µg/mL,0.39 µg/mL,MIC (S.marcescens IAM 1184; [1]): 0.2 µg/mL; MIC (C.freundii GN346): > 100 µg/mL; MIC (Ps.aeruginosa AKR17): > 100 µg/mL; MIC (Ps.maltophilia GN 12873): 50 µg/mL; MIC (Ps.cepacia 23): 1.56 µg/mL
"CON=C(C(=O)NC1C(=O)N2C(C(=O)[O-])=C(C[n+]3ccc4c(O)cccc4c3)CS[C@H]12)c1csc(N)n1 (stereo partly drawn) [Reference Ex. 2, 7-[2-(2-aminothiazol-4-yl)-2-methoxyiminoacetamido]-3-(5-hydroxy-2-isoquinolinio)methyl-3-cephem-4-carboxylate, reference compound]",3.12 µg/mL,3.12 µg/mL,< 0.006 µg/mL,< 0.006 µg/mL,0.39 µg/mL,0.1 µg/mL,0.025 µg/mL,0.025 µg/mL,0.78 µg/mL,6.25 µg/mL,3.12 µg/mL,12.5 µg/mL,12.5 µg/mL,0.2 µg/mL,3.12 µg/mL,0.025 µg/mL,0.1 µg/mL,0.025 µg/mL,0.1 µg/mL,1.56 µg/mL,MIC (S.marcescens IAM 1184; [1]): 0.025 µg/mL; MIC (C.freundii GN346): 6.25 µg/mL; MIC (Ps.aeruginosa AKR17): > 100 µg/mL; MIC (Ps.maltophilia GN 12873): > 100 µg/mL; MIC (Ps.cepacia 23): 6.25 µg/mL

# From EP0238060B1, “Cephalosporin derivatives, processes for their preparation and antibacterial agents” (Banyu Pharmaceutical Co., Ltd., priority 1986, dated 1987)
